Laboratory results: PMC6696115, “Characterization of Antimicrobial, Antioxidant, and Leishmanicidal Activities of Schiff Base Derivatives of 4-Aminoantipyrine” (Molecules, 2019)
≈ marks a conversion by molar mass, not a printed value. Read-outs that look alike come from different tables or passages of the source.

Legend:
[1] = DPPH radical scavenging assay; assay type: biochemical; conditions: 30 min, room temperature, dark, absorbance 515 nm
Experimental: This was used immediately. The experimental procedure was adapted from the literature. Briefly, in a 96-well plate, 100 µL of solution of DPPH (2, 2-diphenyl-1-picrylhydrazyl) radical (0.2 mM in methanol) was added to 100 µL of methanolic solutions of 3a–j, 4, or 5, prepared as serial two-fold dilutions from the stock solution. Standards were also prepared in the same concentrations.
The percentage of DPPH scavenging was then calculated by using the following formula: % DPPH scavenging=100∗Asample+DPPH−Asample blank/ADPPH−Asolvent

P. aeruginosa ATCC 27853 = assay: antimicrobial serial microdilution, P. aeruginosa; assay type: cell-based; conditions: Pseudomonas aeruginosa, ATCC27853, 37 °C, 24 h
Experimental: (§1) The in vitro antifungal and antimicrobial activities were determined by testing the Schiff bases against the fungi Saccharomyces cerevisiae, Candida albicans, and Aspergillus niger and the bacteria Staphylococcus aureus, Enterococcus faecalis (Gram-positive), Pseudomonas aeruginosa, and Escherichia coli (Gram-negative).
(§2) The bacterial inoculum was prepared by emulsifying overnight colonies from an agar medium in broth (Mueller–Hinton broth). The suspensions were adjusted to a final organism density of 5 × 10^5 colony former units (cfu)/mL. […] The emulsifying of A. niger cultures was done by pouring 5 mL of saline and 0.1% of polysorbate 80 over the Petri dishes. Then, 100 µL of this suspension were diluted in 5 mL of saline and adjusted to an optical density of 0.1 at 530 nm. For S. cerevisiae, fresh exponential YPAD (yeast extract 1%, peptone 2%, adenine 0.004%, […]) cultures were adjusted to an optical density of 0.5 at 600 nm, and then diluted to the equivalent of 1 × 10^4 cells/mL (10^−3 dilution). Stock solutions of Schiff bases were prepared by dissolving them in DMSO at 10 mg/mL. […] The range of concentrations used was empirically selected for each organisms and the Schiff base. Drug sensitivities were assayed by serial dilutions in 96-well plates as previously described. A row with media and cells but without drug was the positive control. The blank was done by preparing a row with media and drugs, but without cells. Plates were fitted with a tight lid before incubation to prevent desiccation. […] The minimum bactericidal concentration (MBC) and fungicidal concentration (MFC) were determined by spreading 100 µL of culture from each well onto a plate (Mueller–Hinton agar for bacteria, Sabouraud dextrose agar for fungi except S. cerevisiae, and YPAD for S. cerevisiae).

[2] = system: Staphylococcus aureus ATCC 29213; assay: antimicrobial serial microdilution, S. aureus; assay type: cell-based; conditions: serial microdilution, 37 °C, 24 h
Experimental: as §1, §2

RAW 264.7 cells = assay: cell viability, MTT dye assay; assay type: cell-based, murine; conditions: RAW 264.7, exposure to 300 µM (limited solubility), 48 h
Experimental: The specificity and selectivity for the pathogen target is a key point for any potential drug.
The medium was renewed once a week. The viability was determined using MTT (thiazolyl blue tetrazolium bromide) dye assay as described previously for leishmanicidal activity assessment, with some variations. Here, 5 × 10^4 cells/well in a final volume of 100 µL were deposited into a 96-well plate in triplicate. Saponin (2 and 4 mg/mL) and untreated cells were used as the positive control and negative control, respectively. Schiff bases were dissolved in DMSO to obtain different serial concentrations (0.01–2000 µM). […] Cells were pelleted by centrifugation at 4400 rpm for 10 minutes and the media was removed. Next, 100 µL/well of DMSO were added and the absorbance at 570 nm was recorded. A reference wavelength of 630 nm was used for background subtraction.

[3] = system: Candida albicans ATCC 10231; assay: antimicrobial serial microdilution, C. albicans; assay type: cell-based; conditions: serial microdilution, 35 °C, 48 h; for MIC / IC50: Candida albicans, ATCC10231; for NIC C. albicans: noninhibitory concentration
Experimental: as §1, §2

[4] = system: Enterococcus faecalis ATCC 29212; assay: antimicrobial serial microdilution, E. faecalis; assay type: cell-based; conditions: Enterococcus faecalis, ATCC29212; serial microdilution, 37 °C, 24 h
Experimental: as §1, §2

[5] = system: Escherichia coli ATCC 25922; assay: antimicrobial serial microdilution, E. coli; assay type: cell-based; conditions: serial microdilution, 37 °C, 24 h
Experimental: as §1, §2

[6] = system: Aspergillus niger ATCC 6275; assay: antimicrobial serial microdilution, A. niger; assay type: cell-based; conditions: serial microdilution, 35 °C, 48 h; for MIC / IC50: Aspergillus niger, ATCC6275; for MIC: 96-well plates, max 2% DMSO; for NIC A. niger: noninhibitory concentration
Experimental: as §1, §2

[7] = system: S. cerevisiae (backgrounds W303 and BY4741); assay: antimicrobial serial microdilution, S. cerevisiae; assay type: cell-based, Saccharomyces cerevisiae; conditions: 48 h; for IC50 / MIC: Saccharomyces cerevisiae; for MIC: read-out: MIC S. cerevisiae; for NIC S. cerevisiae: noninhibitory concentration
Experimental: as §1, §2

[8] = system: promastigotes from L. mexicana (M379); assay: leishmanicidal activity, MTT colorimetric assay; assay type: cell-based; conditions: Leishmania mexicana, 48 h exposure, 1% DMSO
Experimental: Leishmanicidal activities of all Schiff bases were evaluated by measuring promastigote mitochondrial activity using MTT colorimetric assay as described previously. […] The medium was renewed every four days. Parasite density was determined in a Neubauer chamber.
Into each well of a 96-well cell culture dish was dispensed 1 × 10^6 parasites. A stock solution of each of the Schiff Base was prepared in DMSO, and serial dilutions were added to the parasite suspension, keeping the solvent concentration at 1%. The final volume was 100 µL for each well and triplicate conditions were carried out. Pentamidine treatment (100 µg/mL) and untreated parasites were used as positive control and negative control, respectively. After exposure to the compounds for 48 h in culture medium, 10 µL of a solution of 5 mg/mL MTT dissolved in PBS was added to each well. […] Later, the plate was centrifuged at 4400 rpm for 10 min and the culture medium was then aspirated. Next, 100 µL of DMSO were added into each well to solubilize the formazan and the plate was shaken for 5 min. The colored formazan salt was measured by recording changes in absorbance at 570 nm using a microplate reader, a BioTek Synergy HT spectrophotometer. A reference wavelength of 630 nm was used to subtract background. Optical densities were analyzed as the quantity of formazan is directly proportional to the number of viable parasites. Data were analyzed with the statistical software GraphPad Prism.

[9] = carcinogenicity group; ref IARC; cited from earlier work
[10] = Staphylococcus aureus, ATCC29213
[11] = serial microdilution, 35 °C, read-out: IC50 S. cerevisiae (converted)

`O=c1c(O)c(-c2ccc(O)c(O)c2)oc2cc(O)cc(O)c12` [quercetin, reference compound] showed an IC50 [1] of 7.3 ± 1 µM.
For `Cc1c(N=Cc2cccc([N+](=O)[O-])c2)c(=O)n(-c2ccccc2)n1C` [Compound 3g, 4-(3-Nitrobenzylideneamino)-1,5-dimethyl-2-phenyl-1H-pyrazol-3(2H)-one], the MIC (P. aeruginosa ATCC 27853) was greater than 200 µg/mL, the MIC [2, 10] was greater than 200 µg/mL and the “% Live Cells” value (RAW 264.7 cells) was 22.1 ± 0.6%. For the same compound, the IC50 [1] was greater than 200 µM, the MIC [3] was greater than 200 µg/mL and the MIC [4] was greater than 200 µg/mL. For the same compound, the MIC ([5]; Escherichia coli, ATCC25922) was greater than 200 µg/mL, the MIC [6] was greater than 200 µg/mL and the IC50 [7, 11] was 105 µg/mL (≈ 312 µM). The MIC ([7]; serial microdilution, 35 °C) was 179 ± 59.5 µg/mL (≈ 533 µM), the “NIC S. cerevisiae” value ([7]; serial microdilution, 35 °C) was 63.7 ± 8.7 µg/mL and the IC50 [8] was greater than 200 µM.
For `O=C(O)/C=C/c1ccc(O)c(O)c1` [caffeic acid, reference compound], the IC50 [1] was 16.2 ± 2.4 µM.
For `O=P1(N(CCCl)CCCl)NCCCO1` (centres unmarked) [Cyclophosphamide], the “IARC: group of classification of IARC” value [9] is given as 1.
In the case of `Cc1c(N=Cc2cc([N+](=O)[O-])ccc2O)c(=O)n(-c2ccccc2)n1C` [Compound 3f, 4-(2-Hydroxy-5-nitrobenzylideneamino)-1,5-dimethyl-2-phenyl-1H-pyrazol-3(2H)-one], the MIC (P. aeruginosa ATCC 27853) is reported as greater than 200 µg/mL, the IC50 [2, 10] is reported as 9.5 µg/mL (≈ 27 µM) and the MIC [2, 10] is reported as 27.7 ± 4.7 µg/mL (≈ 78.6 µM). The “NIC S. aureus” value ([2]; noninhibitory concentration) was 3.3 ± 1.5 µg/mL, the IC50 [1] was greater than 200 µM and the IC50 [3] was 10.4 µg/mL (≈ 29.5 µM). For the same compound, the MIC [3] was 15.6 ± 0.9 µg/mL (≈ 44.3 µM), the “NIC C. albicans” value [3] was 7.5 ± 1.1 µg/mL and the MIC [4] was greater than 200 µg/mL. For the same compound, the IC50 ([5]; Escherichia coli, ATCC25922) was 15.8 µg/mL (≈ 44.8 µM), the MIC ([5]; Escherichia coli, ATCC25922) was 47.7 ± 1 µg/mL (≈ 135 µM) and the “NIC E. coli” value ([5]; noninhibitory concentration) was 4.9 ± 0.2 µg/mL. The IC50 [6] was 10.6 µg/mL (≈ 30.1 µM), the MIC [6] was 32.6 ± 2.1 µg/mL (≈ 92.5 µM) and the “NIC A. niger” value [6] was 3.4 ± 0.5 µg/mL. The IC50 [7, 11] was 17.9 µg/mL (≈ 50.8 µM), the MIC ([7]; serial microdilution, 35 °C) was 55.9 ± 6.2 µg/mL (≈ 159 µM) and the “NIC S. cerevisiae” value ([7]; serial microdilution, 35 °C) was 5.6 ± 0.9 µg/mL. For the same compound, the IC50 [8] was 5.3 ± 2.8 µM and the melting point was 204.9 to 205.6 °C.
In the case of `Cc1c(N)nc([C@H](CC(N)=O)NC[C@H](N)C(N)=O)nc1C(=O)N[C@H](C(=O)N[C@H](C)[C@@H](O)[C@H](C)C(=O)N[C@H](C(=O)NCCc1nc(-c2nc(C(=O)NCCC[S+](C)C)cs2)cs1)[C@@H](C)O)[C@@H](OC1OC(CO)C(O)C(O)C1OC1OC(CO)C(O)C(OC(N)=O)C1O)c1cnc[nH]1` (some centres unmarked) [Bleomycin], the “IARC: group of classification of IARC” value [9] is given as 2B.
For `N.N.[Cl][Pt][Cl]` [Cisplatin], the “IARC: group of classification of IARC” value [9] is given as 2A.
In the case of `C[C@@H](c1ncncc1F)[C@](O)(Cn1cncn1)c1ccc(F)cc1F` [VR, voriconazole, reference compound], the IC50 [3] is reported as 0.9 µg/mL (≈ 2.58 µM), the MIC [3] is reported as 29.7 ± 3.52 µg/mL (≈ 85 µM) and the “NIC C. albicans” value [3] is reported as 0.00 ± 0.00 µg/mL. For the same compound, the IC50 [6] was 0.2 µg/mL (≈ 0.573 µM), the MIC [6] was 1.2 ± 0.05 µg/mL (≈ 3.44 µM) and the “NIC A. niger” value [6] was 0.05 ± 0.01 µg/mL.
For `CN[C@@H]1[C@@H](O)[C@@H](O[C@@H]2[C@@H](O)[C@H](O[C@H]3O[C@H]([C@@H](C)O)[C@@H](O)[C@H](O)[C@H]3N)[C@@H](N)C[C@H]2N)OC[C@]1(C)O` [GN, geneticin, reference compound], the IC50 ([7]; read-out: IC50 S. cerevisiae) was 59.9 µg/mL (≈ 121 µM), the MIC [7] was 93.7 ± 0.9 µg/mL (≈ 189 µM) and the “NIC S. cerevisiae” value ([7]; serial microdilution, 35 °C) was 44.5 ± 1.7 µg/mL.
Work on `C[C@@H]1[C@H](O)[C@@H](C)/C=C/C=C/C=C/C=C/C=C/C=C/C=C/[C@H](O[C@@H]2O[C@H](C)[C@@H](O)[C@H](N)[C@@H]2O)C[C@@H]2O[C@](O)(C[C@@H](O)C[C@@H](O)[C@H](O)CC[C@@H](O)C[C@@H](O)CC(=O)O[C@H]1C)C[C@H](O)[C@H]2C(=O)O` [AP, amphotericin, reference compound] yielded an IC50 [8] of 0.18 ± 0.07 µM.
